Laboratory results reported in patent publication US7855232B2, “Organoselenium compound for cancer chemoprevention” (LKT Laboratories, Inc., priority 2001, dated 2010).

Test system: GSH
Test: Glutathione (GSH) concentration in tissues of treated mice, HPLC
Assay type: in vivo, Female A/J mice
Conditions: liver; for Ratio Test/con (GSH): gavage; for GSH conc.: gavage in corn oil
Procedure: GSH was quantitated by modification of the procedure Siller-Cepeda et al. Plant Cell Physiol. 32:1179-1185 (1991). Aliquots of tissue homogenates were mixed with equal volumes of 20% PCA containing 2 mM BPDS. Vortex, centrifuge at 7800×g for 15 minutes at 4° C. and 250 μl supernatant transferred into a microfuge tube containing 25 μl of γ-glu-glu as internal standard. The samples were carboxymethylated with 25 μl of 100 mM iodoacetic acid dissolved in 0.2 mM m-cresol purple sodium salt solution. The pH of the solution was adjusted to 9-10 by adding 350 μl of KOH (2M)-KHCO3 (2.4 M) mixture and incubated in the dark for 15 minutes. After carboxymethylation, the samples were derivatized with 500 μl of 1% dinitrofluorobenzene (DNFB) and kept in the dark at 4° C. overnight. The samples were centrifuged at 13,000×g for 15 minutes, filtered through 0.2 μm filter, and were analyzed with a SHIMADZU two-pump gradient HPLC system. Samples were injected by a SHIMADZU SIL-10AV Autoinjector onto a Varian 3-aminopropyl MICROSORB-MV column (4.6×250 mm) operated at ambient temperature with a flow rate of 1 ml/min. Absorbance of the dinitrophenyl derivatives was monitored at 365 nm. The amount of GSH was calculated from a standard curve using γ-glu-glu as internal standard.

With `N#C[Se]Cc1ccc(C[Se]C#N)s1` [(2) TDMSC, thienyl-2,5-di-methylene selenocyanate] the “Ratio Test/con (GSH)” value (dose 0.02 mmol/Kg body weight) was 1.28, the GSH conc. (dose 0.02 mmol/Kg body weight) was 4.91 ± 1.16 μmol/gm tissue weight and the “Ratio Test/con (GSH)” value (dose 0.04 mmol/Kg body weight) was 1.20. For the same compound, the GSH conc. (dose 0.04 mmol/Kg body weight) was 4.60 ± 2.13 μmol/gm tissue weight.
